Tests used:
[1] = system: HeLa tumor cells; test: Cytotoxicity (antiproliferative assay) in the absence of light exposure; type: cell-based; settings: 24 hr incubation
Method: Cytotoxicity was analyzed, considering the intensity of proliferative processes in cells, photosensitizer concentration, and dose of optical power. For each point, 3 flasks with cell monolayer were used.
The monolayer culture of HeLa tumor cells was chosen and used as the cell.
The culture of HeLa tumor cells was grown in nutrient medium 199 or in nutrient medium containing hemohydrolyzate supplemented with 10% fetal bovine serum and […] of kanamycin.
On day 4 after the cell culture was inoculated in the flasks (100,000 cells per 2.0 ml of nutrient medium), the photosensitizer was added at a concentration of 1, 2.5, 5.0, 10.0, 20.0, or 30.0 mg/ml.
Flasks with light-protective cover (dark cytotoxicity) were incubated at 37.5° C. for 1 hour. The cells were washed with Hank's solution 4 times. 2.0 ml of fresh nutrient medium were added, and the cells were irradiated at the temperature of melting ice for 5, 10, 15 or 20 mins by the light flux of a “METALAZ” laser medical device (wavelength: 627.8 nm, 578.2 or 510.6 nm) or “LD 680-2000” (wavelength: 670-690 nm), depending on the wavelength of maximum spectral absorption of the studied photosensitizer, at a dose of 40 J/cm^2. After 20-24 hours, the number of tumor cell was counted in Goriaev's chamber.

[2] = system: HeLa cell culture; test: Phototoxicity (photodynamic activity), 3.5 h incubation, 3.3 joule/cm^2; type: cell-based; set-up: number of HELA cells (relative to the control): unit not given here; settings: incubation 3.5 hours
Method: To examine the photodynamic effects of a photosensitizer on a HeLa cell culture, the photosensitizer solution was added to the nutrient media at a final concentration of 0.1, 0.5, 1.0, 5.0 or 10 mcg/ml on day 3 after transplanting the cell culture into flasks. The flasks were wrapped with a light protecting cover, and incubated at 37° C. for 3.5 hours. Then, the cells were washed with Hank's solution, and exposed on ice by a laser medical device “LD 680-2000” (wavelength: 670-690 nm) at a dose of 3.3 joule/cm^2. After 20-24 hours, the available cell monolayer was dispersed using a 0.02%-Versene solution, and the number of tumor cells was calculated in Goriaev's chamber. For each point, 3 flasks were used.

[3] = system: Hela cells; test: Accumulation in Hela cells; type: cell-based; settings: 2×10^−7 M/l, 37° C.
Method: The cellular accumulation and the targeted delivery of the photoactive compounds were investigated using Hela cells, which is one of the numerous tumor cell types that overexpress folate receptors.
Cells were cultivated for 3 days in medium 199, and transferred to Hank's solution/medium 199 (9/1). After 3 hours, the cell were collected by trypsin treatment from the substrate and placed in Hank's solution (10^5 κπ/ml). To cell suspensions, chlorin e6 conjugates were added at a concentration of 2×10^−7 M/l, and incubated at 37° C. After 1, 5, 10, 15, and 24 hours, the samples were centrifuged, the pellet was washed with the cooled Hank's solution, and transferred to Hank's solution at a concentration being equal to that in the initial suspension.

[4] = system: Hela cells; test: Phototoxicity, 24 h incubation, 1.5-15 joule/cm^2; type: cell-based; settings: 670-690 nm
Method: In other experiment, the cells were incubated with photosensitizers at 37° C. for 24 hours, and irradiated by exposed on ice by a laser medical device “LD 680-2000” (wavelength of 670-690 nm) in a dose of 1.5-15 joule/cm^2.

[5] = system: transporter of restored vectors (TRV); settings: cited from earlier work

SMILES: C=Cc1c(C)c2cc3nc(c(CC(=O)O)c4[nH]c(cc5nc(cc1[nH]2)C(C)=C5CC)c(C)c4C(=O)O)C(CCC(=O)O)C3C (stereo not drawn) [chlorin e6, 13-carboxy-17-[2-carboxyethyl]-15-carboxymethyl-17,18-trans-dihydro-3-vinyl-8-ethyl-2,7,12,18-tetramethylporphyrin]
- cell survival rates [1]: about 90%
- number of HELA cells (relative to the control) ([2]; photoexposure 3.3 joule/cm^2, conc. 0.1 mcg/ml): 87.1
- number of HELA cells (relative to the control) ([2]; photoexposure 3.3 joule/cm^2, conc. 0.5 mcg/ml): 83.6
- number of HELA cells (relative to the control) ([2]; photoexposure 3.3 joule/cm^2, conc. 1.0 mcg/ml): 64.7
- number of HELA cells (relative to the control) ([2]; photoexposure 3.3 joule/cm^2, conc. 5.0 mcg/ml): 19
- number of HELA cells (relative to the control) ([2]; photoexposure 3.3 joule/cm^2, conc. 10.0 mcg/ml): 3.8
- concentration in Hela cells ([3]; incubation time 1 hours): 0.86 relative units/10^4cl.
- concentration in Hela cells ([3]; incubation time 5 hours): 1.45 relative units/10^4cl.
- concentration in Hela cells ([3]; incubation time 10 hours): 1.72 relative units/10^4cl.
- concentration in Hela cells ([3]; incubation time 15 hours): 0.81 relative units/10^4cl.
- concentration in Hela cells ([3]; incubation time 24 hours): 0.40 relative units/10^4cl.
- phototoxicity / photosensitivity in survival test [4]: little phototoxicity

SMILES: Nc1nc(O)c2nc(CNc3ccc(C(=O)N[C@@H](CCC(=O)O)C(=O)O)cc3)cnc2n1 [folic acid, N-[4(2-Amino-4-hydroxypteridin-6-ylmethylamino)benzoyl]-L(+)-glutamic acid]
- affinity of the carrier (TRV) [5]: about 200 μM
